Values of other authors as cited in US20090252807A1, “Nanoparticulate and Controlled Release Compositions Comprising Prostaglandin Derivatives” (ELAN PHARMA INTERNATIONAL LIMITED, priority 2005, published 2009).
Where two headings read alike, the source gives them in different places.

Legend:
coronary blood flow = settings: intra-coronary injection 100 ng/kg or intravenous injection 3 μg/kg, anesthetized dogs
blood pressure = settings: 100 and 300 μg/kg orally in rats
platelet adhesiveness = settings: in vitro

In the case of “(E)-7-{(1R,2R,3R)-3-hydroxy-2-[(3S,5S)-E-3hydroxy-5-methyl-1-nonenyl]-5-oxocyclopentyl}-2-heptonoic acid α-cyclodextrin inclusion compound [Limaprost]”, the “increase of coronary blood flow” value (coronary blood flow) is given as 60-80%, the hypotensive effects (blood pressure) is given as “Significant hypotensive effects” and the “potency relative to PGE1 as an inhibitor of platelet adhesiveness” value (platelet adhesiveness) is given as 10-1,000 times. The solubility in diethylether was “practically insoluble”, the solubility in ethanol was “very slightly soluble” and the “solubility in ethyl acetate” value was “practically insoluble”. The solubility in water was “freely soluble” and the solubility in water (listed as limaprost) was “practically insoluble”.
